Experimental data reported in patent US20090305954A1, “HISTIDINE-CONTAINING DIASTEREOMERIC PEPTIDES AND USES THEREOF” (Yeda Research and Development Co. Ltd., priority 2005, published 2009).
Converted amounts (≈) assume the structure as drawn. Square brackets hold non-standard residues; d marks the D form. Peptide text beside a SMILES is read from it.

Experiments:
[1] = system: PC3 human prostate cancer cell line; assay: XTT proliferation (cytotoxicity) assay, PC3; type: cell-based; details: PC3, pH 7.4, 24 h
Description: (§1) The CL1 human prostate carcinoma (PC) cell line is an androgen-independent (AI) subclone of LNCaP cell line, which was generated by culturing androgen-dependent (AD) LNCaP cells in charcoal-stripped, […], as described (Patel et al. 2000). 22RV1 human PC cells are AI sub-clones of the AD prostatic adenocarcinoma CWR22 xenograft (Sramkoski et al. 1999). CL1 and 22RV1 (ATCC, USA) were grown in RPMI-1640 supplemented with 10% FCS (Biological Industries, Beit Haemek, Israel). PC3 and DU145 are androgen-insensitive (AI) (non-responsive), invasive human prostate cancer cell lines. NIH-3T3 mouse fibroblast cell lines (ATCC, USA) were grown in DMEM supplemented with 10% BS. Murine Lewis lung carcinoma (LLC) cell lines were also grown in DMEM medium supplemented with 10% fetal calf serum and antibiotics under the same conditions as above.
(§2) The anticancer activity of the diastereomers 1, 5 and 11-16, 36-39, 42 and 44 was examined against human CL1 prostate cancer, murine LLC (Lewis lung carcinoma), DU 145 and PC3 cell lines. The cell selectivity of the diastereomeric peptides was also studied by examining their effect on NIH-3T3 normal mouse fibroblasts cell line.
A 96-well plate (Falcon) was used for the XTT proliferation assay. Cancer cells were grown for 24 hours (day 1) in RPMI-1640 medium (5×10^3, 7×10^3, 1×10^4 and 7×10^3 cells/100 μl for LLC, CL1, 22RVI, DU 145 and PC3, respectively) supplemented with 10% fetal calf serum and antibiotics, at 37° C., in humidified atmosphere at 5% CO2 and 95% air, resulting in growth medium pH of 7.4. […]
In day 3, XTT reaction solution was prepared by adding to 100 μl aliquots of activation solution (sodium 3′-[1-(phenyl-aminocarbonyl)-3,4-tetrazolium]-bis(4-methoxy-6-nitro) benzene sulfonic acid hydrate and N-methyl dibenzopyrazine methyl sulfate; mixed in a proportion of 50:1) (protected from light and kept in −20° C.), the substrate. […] The optical density was read at wavelength of 450 nm in an ELISA plate reader. Cell viability was determined relative to the control and final results were recorded. […]

[2] = system: CL1 human prostate carcinoma cell line; assay: XTT proliferation (cytotoxicity) assay, CL1; type: cell-based
Description: as §1, §2
(§3) A 96-well plate (Falcon) was used for the XTT proliferation assay. Cancer cells were grown for 24 hours (day 1) in RPMI-1640 medium ([…] cells/100 μl for LLC, CL1, 22RVI, DU 145 and PC3, respectively) supplemented with 10% fetal calf serum and antibiotics, at 37° C., in humidified atmosphere at 5% CO2 and 95% air, resulting in growth medium pH of 7.4. NIH-3T3 fibroblast cells (1×10^4 cells/100 μl) were grown in DMEM medium supplemented with 10% bovine calf serum and antibiotics under the same conditions as described above for the cancerous cells. Wells in the last two rows served as blanks (medium only, for measuring the background color of the medium) and 100% survival controls (cells and medium only without treatment), respectively.
(§4) In day 2, the peptides were dissolved in sterile PBS to a concentration of 200 μM (or 500 μM). The medium in the assay wells was replaced with 100 μl serum free medium. For the assays at pH 6, the medium was initially concentrated (×5 or ×10) and then diluted with double distilled water and addition of sodium carbonate. Before reaching the correct dilution, the medium was adjusted to pH 6 and then more water was added to reach the final dilution. The cells were grown in physiological pH, and the acidic pH was used only during the 24 hours incubation with the peptides. A sign for the correct acidity was a light yellow color of the medium. In line A of the plate, 160 μl of serum free medium was added, if the initial peptide concentration was 500 μM.
(§5) Peptide solutions, 100 μl (or 40 μl) were added to each assay well in line A, such that the final concentration of the peptide was […] and the volume 200 μl. The medium in the wells was mixed with multichannel pipette 5 times and 100 μl of it were transferred to the next row of wells (line B), to give a peptide concentration of 50 μM. The double dilution of the peptides continued downstream the plate in the same manner. The plates were then incubated for 24 h.
(§6) In day 3, XTT reaction solution was prepared by adding to 100 μl aliquots of activation solution (sodium 3′-[1-(phenyl-aminocarbonyl)-3,4-tetrazolium]-bis(4-methoxy-6-nitro) benzene sulfonic acid hydrate and N-methyl dibenzopyrazine methyl sulfate; mixed in a proportion of 50:1) (protected from light and kept in −20° C.), the substrate. 50 μl of XTT reaction solution were added to each well and the plates were incubated for 2 hours (37° C. and 5% CO2+95% air. In cases the incubation was not enough for the creation of the color, it was extended for up to 24 hours). The optical density was read at wavelength of 450 nm in an ELISA plate reader. Cell viability was determined relative to the control and final results were recorded. The results were confirmed using replications in at least three independent experiments. […]

[3] = system: Murine Lewis lung carcinoma (LLC) cell line; assay: XTT proliferation (cytotoxicity) assay, LLC; type: cell-based
Description: as §1, §2, §3, §4, §5, §6

[4] = system: pepsin, trypsin, and elastase; assay: Resistance to proteolytic digestion (reverse-phase HPLC); type: in vitro ADME; details: after 2 hr, 140 μM peptide, 25 μM protease, 37° C.
Description: In order to reach their target, the diastereomers have to withstand proteolytic digestion of proteases, which may occur after their administration and during the time until they reach the target site. The susceptibility of the peptides 13 and 14 to proteolytic digestion by pepsin (from porcine stomach mucosa, Sigma), trypsin (from bovine pancreas, Sigma), and elastase (from human leukocytes, Sigma) was assessed by reverse-phase HPLC. As a negative control, the all L-amino acid analog peptides were used. Equal amounts of the peptides were dissolved in PBS (35 mM phosphate buffer/0.15 M NaCl, pH 7.3) at a final concentration of 140 μM, to which 25 μM of protease were added. […] After the addition of the appropriate protease inhibitor to stop the reaction, aliquots were injected to C18 column and the amounts of the intact peptides 13 and 14 and their all L analogs were evaluated using their absorbance at 215 nm.

[5] = system: DU145 human prostate cancer cell line; assay: XTT proliferation (cytotoxicity) assay, DU145; type: cell-based
Description: as §1, §2, §3, §4, §5, §6

[6] = system: NIH-3T3 normal mouse fibroblasts cell line; assay: XTT proliferation (cytotoxicity) assay, normal fibroblasts; type: cell-based; details: NIH3T3, pH 7.4, 24 h
Description: as §1, §2, §3, §4, §5, §6

[7] = as above; type: cell-based, mouse; details: mouse, NIH-3T3 normal mouse fibroblasts; NIH3T3, pH 6, 24 h; read-out: Lethal Concentration (LC50)
Description: as §1, §2, §3, §4, §5, §6

[8] = system: 22RV1 human PC cells; assay: XTT proliferation (cytotoxicity) assay, 22RV1; type: cell-based
Description: as §1, §3, §4, §5
In day 3, XTT reaction solution was prepared by adding to 100 μl aliquots of activation solution (sodium 3′-[1-(phenyl-aminocarbonyl)-3,4-tetrazolium]-bis(4-methoxy-6-nitro) benzene sulfonic acid hydrate and N-methyl dibenzopyrazine methyl sulfate; mixed in a proportion of 50:1) (protected from light and kept in −20° C.), the substrate. 50 μl of XTT reaction solution were added to each well and the plates were incubated for 2 hours (37° C. and 5% CO2+95% air. In cases the incubation was not enough for the creation of the color, it was extended for up to 24 hours). The optical density was read at wavelength of 450 nm in an ELISA plate reader. Cell viability was determined relative to the control and final results were recorded. The results were confirmed using replications in at least three independent experiments. The LC50 for each peptide was obtained from the curve of cell viability versus concentration of peptide and taken from the concentration at which cell viability was 50%. The data shown in Table 1 are for only one experiment, but representative of all replications.

## CC(C)C[C@H](NC(=O)[C@H](CC(C)C)NC(=O)[C@@H](CCCCN)NC(=O)[C@H](CC(C)C)NC(=O)[C@H](CC(C)C)NC(=O)[C@H](Cc1c[nH]cn1)NC(=O)[C@@H](CCCCN)NC(=O)[C@@H](CC(C)C)NC(=O)[C@H](CC(C)C)NC(=O)[C@@H](CCCCN)NC(=O)[C@H](Cc1c[nH]cn1)NC(=O)[C@H](CC(C)C)NC(=O)[C@@H](CC(C)C)NC(=O)[C@H](Cc1c[nH]cn1)NC(=O)[C@@H](N)CC(C)C)C(N)=O [Peptide 14] (H-LH[dL]LH[dK]L[dL][dK]HLL[dK]LL-NH2)
[1]
  Lethal Concentration (LC50): 18.7 µg/mL
[2]; CL1, pH 6, 24 h
  Lethal Concentration (LC50): 12.5 µg/mL
[2]; CL1, pH 7.4, 24 h
  Lethal Concentration (LC50): 12.5 µg/mL
[2]; CL1 and 22RVI, pH 7.4
  activity compared with peptide 1: half as active
[2]; CL1 vs NIH-3T3, pH 7.4
  active concentration lower than against NIH-3T3: 8 fold
[2]; CL1 vs NIH-3T3 at the same pH
  active concentration lower than against NIH-3T3: at least two-fold lower
[3]; pH 6, 24 h
  Lethal Concentration (LC50): 25 µg/mL
[3]; pH 7.4, 24 h
  Lethal Concentration (LC50): 50 µg/mL
[4]
  proteases digestion: ~50%
[5]; DU145, pH 6, 24 h
  Lethal Concentration (LC50): 9.3 µg/mL
[5]; DU145, pH 7.4, 24 h
  Lethal Concentration (LC50): 12.5 µg/mL
[6]
  Lethal Concentration (LC50): 100 µg/mL
[7]
  CC50 at 24 h: 25 µg/mL (≈ 13.7 µM)
[8]; 22RV1, pH 6, 24 h
  Lethal Concentration (LC50): 12.5 µg/mL
[8]; 22RV1, pH 7.4, 24 h
  Lethal Concentration (LC50): 25 µg/mL
